These results are taken from patent US5726164A, “Nanosuspensions for intravenous administration” (Novartis Corporation, priority 1995, dated 1998).

Data set [1] in a line: water solubility. It counts as physicochemical. The note with it: at room temperature. From the text: A staurosporin derivative that is sparingly soluble in water is disclosed, for example, in U.S. Pat. No. 5,093,330 and is derived from staurosporin by additional substitution of the free hydrogen atom at the nitrogen of the N-methylamino substituent. Poor solubility in water is a characteristic property of staurosporin derivatives, which renders them unsuitable for intravenous dosage forms.

For data set [2] the following is noted: cited from earlier work.

“Also recorded” adds a separate entry of the source.

For `CO[C@@H]1[C@H](N(C)C(=O)c2ccccc2)C[C@H]2O[C@]1(C)n1c3ccccc3c3c4c(c5c6ccccc6n2c5c31)C(=O)NC4` [N-benzoyl-staurosporin], the solubility (as a rule, the dissolved amount per volume that the medium holds) in data set [1] was less than 0.1 µg/mL. On to `CN[C@@H]1C[C@H]2O[C@@](C)([C@@H]1OC)n1c3ccccc3c3c4c(c5c6ccccc6n2c5c31)C(=O)NC4` [staurosporin], for which, in data set [2], the “water solubility (in words)” value is given as “particularly poor water solubility; also recorded: extremely low water solubility”.
